Measured values reported in patent US20250154219A1, “PEPTIDE ANALOGS” (Adepthera LLC, priority 2017, published 2025).

Columns and labels:
Assay type in all cases: cell-based
CLR/RAMP1 receptor [1] = target: T1, CLR/RAMP1 receptor (Homo sapiens, UniProt O60894+Q16602); assay: CLR/RAMP1 cAMP receptor-activation assay (agonist mode); conditions: for CLR/RAMP1 Max Activity % of positive control: agonist mode, positive control β-CGRP;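 as to all read-outs here: Dose–response over 10 threefold dilutions from 1.0 µM, run in duplicate, luminescent cAMP detection (RLU), activity scaled between vehicle control (0%) and maximal control (100%)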
Protocol: (§1) Using a receptor activation assay, the dose-dependent stimulatory response of peptide agonists on a CLR/RAMP1 receptor, a CLR/RAMP2, or a CLR/RAMP3 receptor complex was determined. A cell line carrying the recombinant CLR/RAMP1, CLR/RAMP2, or a CLR/RAMP3 receptor was employed in the assay. Peptide agonist activities were tested, in duplicate, at 10 different concentrations, starting with 1.0 μM and serially diluted 3-fold, in DMSO. […] The CLR/RAMP1 CAMP, CLR/RAMP2 arrestin, and CLR/RAMP3 CAMP assays (DiscoveRx, Fremont, Calif.) were used.
(§2) The pharmacology of superagonistic activity of synthetic analogs was studied in cells that stably express CLR/RAMP1 (1321N1 cells), CLR/RAMP2 (CHO-K1 cells), or CLR/RAMP3 (CHO-K1 cells) receptors.
For the analysis of Gs-coupled CAMP production, cAMP Hunter cell lines were expanded from freezer stocks, and cells were seeded in a total volume of 20 μL into white walled, 384-well microplates and incubated at 37 C for the appropriate time prior to testing. The CAMP modulation was determined using the DiscoverX HitHunter CAMP XS+ assay. For agonistic activity determination, cells were incubated with sample to induce response. Media was aspirated from cells and replaced with 15 μL 2:1 HBSS/10 mM Hepes: CAMP XS+Ab reagent. […] For Gs-coupled agonistic assays, percentage activity is calculated using the following formula: % Activity=100%×(mean RLU of test sample−mean RLU of vehicle control)/(mean RLU of MAX control−mean RLU of vehicle control).

CLR/RAMP2 receptor [2] = target: T2, CLR/RAMP2 receptor (Homo sapiens, UniProt O60895+Q16602); assay: CLR/RAMP2 arrestin receptor-activation assay (agonist mode); conditions: for CLR/RAMP2 Max Activity % of positive control: agonist mode, positive control ADM; for receptor selectivity of agonists, in words: CLR/RAMP2 versus CLR/RAMP1;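 as to all read-outs here: agonist dose-response in recombinant cell lines stably expressing each receptor complex, duplicate wells over 10 threefold dilutions from a top concentration of 1.0 µM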
Protocol: as §1, §2
For the Arrestin assays, PathHunter cell lines (Discoverx Inc.) were expanded from freezer stocks, and seeded in a total volume of 20 μL into white walled, 384-well microplates and incubated at 37 C for the appropriate time prior to testing. For agonist determination, cells were incubated with sample to induce response. […] The microplates were read following signal generation with a PerkinElmer Envision™ instrument for chemiluminescent signal detection.
The compound activity was analyzed using a CBIS data analysis suite (ChemInnovation, CA). For agonist mode assays, percentage activity was calculated using the following formula:
% Activity=100%×(mean RLU of test sample−mean RLU of vehicle control)/(mean MAX control ligand−mean RLU of vehicle control).

CLR/RAMP1 receptor [3] = target: T1, CLR/RAMP1 receptor; assay: CLR/RAMP1 cAMP assay, antagonist mode (CGRP-stimulated); conditions: for CLR/RAMP1 Max Activity % of positive control (antagonist): antagonist mode
Protocol: A cell line carrying the recombinant CLR/RAMP1, CLR/RAMP2, or a CLR/RAMP3 receptor was employed in the assay. […] The CLR/RAMP1 CAMP, CLR/RAMP2 arrestin, and CLR/RAMP3 CAMP assays (DiscoveRx, Fremont, Calif.) were used.
For the analysis of antagonistic activity, synthetic analogs were pre-incubated with the cells before adding the reference ligand at its EC80. […] For the determination of antagonistic activity, cells were pre-incubated with sample followed by agonist challenge at the EC80 concentration. […] After appropriate compound incubation, assay signal was generated through incubation with 20 μL cAMP XS+ED/CL lysis cocktail for one hour followed by incubation with 20 μL cAMP XS+EA reagent for three hours at room temperature. Microplates were read following signal generation with a PerkinElmer Envision™ instrument for chemiluminescent signal detection.
For the antagonistic activity assay, percentage inhibition is calculated using the following formula: % Inhibition=100%×(1−(mean RLU of test sample−mean RLU of vehicle control)/(mean RLU of EC80 control−mean RLU of vehicle control)).

CLR/RAMP2 receptor [4] = target: T2, CLR/RAMP2 receptor; assay: CLR/RAMP2 arrestin assay, antagonist mode (ADM-stimulated)
Protocol: A cell line carrying the recombinant CLR/RAMP1, CLR/RAMP2, or a CLR/RAMP3 receptor was employed in the assay. Peptide agonist activities were tested, in duplicate, at 10 different concentrations, starting with 1.0 μM and serially diluted 3-fold, in DMSO. […] The CLR/RAMP1 CAMP, CLR/RAMP2 arrestin, and CLR/RAMP3 CAMP assays (DiscoveRx, Fremont, Calif.) were used.
For the analysis of antagonistic activity, synthetic analogs were pre-incubated with the cells before adding the reference ligand at its EC80. […] For antagonistic activity determination, cells were pre-incubated with antagonist followed by agonist challenge at the EC80 concentration. […] Then, 5 μL of 6× EC80 agonist in assay buffer was added to the cells and incubated at 37 C or room temperature for 90 or 180 minutes.
The microplates were read following signal generation with a PerkinElmer Envision™ instrument for chemiluminescent signal detection.
% Activity=100%×(mean RLU of test sample−mean RLU of vehicle control)/(mean MAX control ligand−mean RLU of vehicle control). For antagonistic activity assays, percentage inhibition was calculated using the following formula: % Inhibition=100%×(1−(mean RLU of test sample−mean RLU of vehicle control)/(mean RLU of EC80 control−mean RLU of vehicle control)).

T1 sequence (Q16602 23-461): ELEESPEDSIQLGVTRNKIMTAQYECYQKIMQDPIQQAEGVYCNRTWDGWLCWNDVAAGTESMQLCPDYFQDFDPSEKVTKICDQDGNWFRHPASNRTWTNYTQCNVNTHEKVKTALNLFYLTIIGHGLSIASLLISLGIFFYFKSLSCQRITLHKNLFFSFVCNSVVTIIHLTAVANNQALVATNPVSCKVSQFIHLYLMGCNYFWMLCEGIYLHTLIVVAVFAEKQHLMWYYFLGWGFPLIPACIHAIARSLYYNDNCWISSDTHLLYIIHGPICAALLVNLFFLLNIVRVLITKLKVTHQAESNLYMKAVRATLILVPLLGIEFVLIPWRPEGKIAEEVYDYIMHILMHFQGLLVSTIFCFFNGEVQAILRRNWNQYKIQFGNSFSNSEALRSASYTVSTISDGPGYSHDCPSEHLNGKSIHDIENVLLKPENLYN
T1 sequence (O60894 27-148): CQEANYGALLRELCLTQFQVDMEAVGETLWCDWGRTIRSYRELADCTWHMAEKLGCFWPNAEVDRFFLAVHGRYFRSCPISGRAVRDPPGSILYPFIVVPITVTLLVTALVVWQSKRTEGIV
T2 sequence (Q16602 23-461): as the sequence (Q16602 23-461) above
T2 sequence (O60895 43-175): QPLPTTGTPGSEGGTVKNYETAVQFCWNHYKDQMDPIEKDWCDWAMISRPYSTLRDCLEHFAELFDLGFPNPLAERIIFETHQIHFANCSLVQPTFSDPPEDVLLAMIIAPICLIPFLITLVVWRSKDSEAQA

| Molecule | CLR/RAMP1 Max Activity % of positive control (CLR/RAMP1 receptor [1]) | CLR/RAMP2 Max Activity % of positive control (CLR/RAMP2 receptor [2]) | other results |
| --- | --- | --- | --- |
| CSCC[C@H](NC(=O)CNC(=O)CNC(=O)[C@H](CO)NC(=O)[C@H](CCCNC(=N)N)NC(=O)[C@H](CO)NC(=O)[C@H](CC(C)C)NC(=O)[C@H](CC(C)C)NC(=O)CNC(=O)[C@H](C)NC(=O)[C@H](CC(C)C)NC(=O)[C@H](CCCNC(=N)N)NC(=O)[C@H](Cc1c[nH]cn1)NC(=O)[C@@H](NC(=O)[C@@H](NC(=O)[C@@H]1CSSC[C@H](NC(=O)[C@H](C)N)C(=O)N[C@@H](CC(N)=O)C(=O)N[C@@H]([C@@H](C)O)C(=O)N[C@@H](C)C(=O)N[C@@H]([C@@H](C)O)C(=O)N1)C(C)C)[C@@H](C)O)C(=O)N[C@H](C(=O)N[C@@H](CCCCN)C(=O)N[C@@H](CO)C(=O)N[C@@H](CC(N)=O)C(=O)N[C@@H](Cc1ccccc1)C(=O)N[C@H](C(=O)N1CCC[C@H]1C(=O)N[C@H](C(=O)N[C@@H](CC(N)=O)C(=O)N[C@H](C(=O)NCC(=O)N[C@@H](CO)C(=O)N[C@@H](CCCCN)C(=O)N[C@@H](C)C(=O)N[C@@H](Cc1ccccc1)C(N)=O)C(C)C)[C@@H](C)O)C(C)C)C(C)C [SEQ ID NO: 143, reference compound] | 103 % of positive control |  |  |
| AcePEG3--K([17-carboxy-heptadecanoyl]-isoGlu-Peg3-Peg3)GCRFGTCTVQKLAHQIYQFTDKDKDNVAPRSKISPQGY-NH2 [SEQ ID NO: 158] | 95 % of positive control | 113 % of positive control |  |
| PEG2000-K[PAL]VQKLAHQIYQFTDKDSAPVDPSSPHSY-NH2 [SEQ ID NO: 191] |  |  | CLR/RAMP1 Max Activity % of positive control (antagonist) (CLR/RAMP1 receptor [3]): 98 % of positive control; CLR/RAMP2 Max Activity % of positive control (antagonist) (CLR/RAMP2 receptor [4]): 101 % of positive control |
| Ace-PEG3-K(Hexadecanoyl-isoGlu)GCRFGTCTVQKLAHQIYQFTDKDKDNVAPRSKISPQGY-NH2 [SEQ ID NO: 151] | 85 % of positive control | 134 % of positive control |  |
| miniPEG-K(PAL)GCRFGTCTVQKLAHQIYQFTDKGRQDSAPVDPSSPHSY-NH2 [SEQ ID NO: 68] |  | 70 % of positive control |  |
| miniPEG-K(PAL)GCRFGTCTVQKLAHQIYQFTDKDKDNVAPVDPSSPHSY-NH2 [SEQ ID NO: 50] | 65 % of positive control | 87 % of positive control |  |
| Ace-Y(D-Ala)GF(D-Leu)-miniPEG-K(Pal)VQKLSAPVDPSSPHSY-NH2 [SEQ ID NO: 145] |  |  | receptor selectivity of antagonists, in words (CLR/RAMP1 receptor [3]; CLR/RAMP1 versus CLR/RAMP2): CLR/RAMP1-selective; CLR/RAMP1 Max Activity % of positive control (antagonist) (CLR/RAMP1 receptor [3]): 99 % of positive control; CLR/RAMP2 Max Activity % of positive control (antagonist) (CLR/RAMP2 receptor [4]): 100 % of positive control |
| miniPEG-K(PAL)GCRFGTCTVQKLAHQIYQFTDKDKDNVDPSSPHSY-NH2 [SEQ ID NO: 94] | 67 % of positive control | 82 % of positive control | receptor selectivity of agonists, in words (CLR/RAMP2 receptor [2]): CLR/RAMP2-selective |
| Ace-PEG3-K(Hexadecanoyl-PEG3-isoGlu)GCRFGTCTVQKLAHQIYQFTDKDKDNVAPRSKISPQGY-NH2 [SEQ ID NO: 154] | 83 % of positive control | 112 % of positive control |  |
| Ace-PEG3-K([19-carboxy-nonadecanoyl]-PEG3-isoGlu)GCRFGTCTVQKLAHQIYQFTDKDKDNVAPRSKISPQGY-NH2 [SEQ ID NO: 156] | 88 % of positive control | 91 % of positive control |  |
| miniPEG-K(PAL)GCRFGTC(D-Thr)VQKLAHQIYQFTDKDVAPRSKISPQGY-NH2 [SEQ ID NO: 210] | 77 % of positive control | 47 % of positive control | receptor selectivity of agonists, in words (CLR/RAMP2 receptor [2]): CLR/RAMP2-selective |
| Human β-CGRP [Wild type CGRP-β positive, reference compound] | 100 % of positive control |  |  |
| Ace-PEG3-K(Hexadecanoyl-isoGlu-PEG3)GCRFGTCTVQKLAHQIYQFTDKDKDNVAPRSKISPQGY-NH2 [SEQ ID NO: 152] | 80 % of positive control | 132 % of positive control |  |
| miniPEG-K(PAL)GCRFGTCTVQKLAHQIYQFTDKDKDSAPVDPSSPHSY-NH2 [SEQ ID NO: 46] | 60 % of positive control | 104 % of positive control |  |
| miniPEG-K(PAL)GCRFGTCTVQKLAHQIYQFTDKDVAPRSKISP(D-Gln)GY-NH2 [SEQ ID NO: 214] | 112 % of positive control | 99 % of positive control | receptor selectivity of agonists, in words (CLR/RAMP2 receptor [2]): CLR/RAMP2-selective |
| miniPEG-K(PAL)GCRFGTCTVQKLAHQIYQFTDKDVAPR(D-Ser)KISPQGY-NH2 [SEQ ID NO: 213] | 115 % of positive control | 107 % of positive control |  |

| Molecule | CLR/RAMP1 Max Activity % of positive control (CLR/RAMP1 receptor [1]) | CLR/RAMP2 Max Activity % of positive control (CLR/RAMP2 receptor [2]) | other results |
| --- | --- | --- | --- |
| miniPEG-TK(Pal)KTLRTGCRFGTCTVQKLAHQIYQFTDKDKDNVAPVDPSSPHSY-NH2 [SEQ ID NO: 42] | 56 % of positive control | 76 % of positive control |  |
| Ace-PEG12-PEG12-K([19-carboxy-nonadecanoyl]-isoGlu-PEG3)GCRFGTCTVQKLAHQIYQFTDKDKDNVAPRSKISPQGY-NH2 [SEQ ID NO: 150] | 94 % of positive control | 60 % of positive control |  |
| miniPEG-K(PAL)GCRFGTCTVQKLAHQIYQFTDKDKSAPVDPSSPHSY-NH2 [SEQ ID NO: 47] | 85 % of positive control | 64 % of positive control |  |
| Pyr(glu)-LYENKPRRPYIL-miniPEG-K(PAL)GCRFGTCTVQKLAHQIYQFTDKDVAPRSKISPQGY-NH2 [SEQ ID NO: 223] | 102 % of positive control | 70 % of positive control |  |
| Ace-PEG3-K([19-carboxy-nonadecanoyl]-isoGlu-PEG3)GCRFGTCTVQKLAHQIYQFTDKDVAPRSKISPQGY-NH2 [SEQ ID NO: 159] | 90 % of positive control | 60 % of positive control |  |
| miniPEG-K(PAL)TKKTLRTGCRFGTCTVQKLAHQIYQFTDKDKDNVAPRSKISPQGY-NH2 [SEQ ID NO: 70] | 69 % of positive control | 68 % of positive control |  |
| miniPEG-K(PAL)CRFGTCTVQKLAHQIYQFTDKDKDNSAPVDPSSPHSY-NH2 [SEQ ID NO: 43] | 39 % of positive control | 30 % of positive control |  |
| miniPEG-K(PAL)GCRFGTCTVQKLAHQIYQFTDKDKQDSAPVDPSSPHSY-NH2 [SEQ ID NO: 51] | 65 % of positive control | 107 % of positive control |  |
| Ace-FGCRFGTCTVQKLAHQIYQFTDKDKDNVAPRSKISPQGY-NH2 [SEQ ID NO: 53, reference compound] | 69 % of positive control | 102 % of positive control | agonistic potency for CLR/RAMP1 and/or CLR/RAMP2 receptors, in words (CLR/RAMP1 receptor [1]; CLR/RAMP1 and/or CLR/RAMP2): low potency ligands |
| Ace-PEG3-K([19-carboxy-nonadecanoyl]-isoGlu)GCRFGTCTVQKLAHQIYQFTDKDKDNVAPRSKISPQGY-NH2 [SEQ ID NO: 155] | 81 % of positive control | 95 % of positive control |  |
| Ace-PEG3-K(Hexadecanoyl-isoGlu-PEG3-PEG3)GCRFGTCTVQKLAHQIYQFTDKDKDNVAPRSKISPQGY-NH2 [SEQ ID NO: 153] | 78 % of positive control | 108 % of positive control |  |
| Ace-PEG3-K([19-carboxy-nonadecanoyl]-isoGlu-Peg3-Peg3)GCRFGTCTVQKLAHQIYQFTDKDKDNVAPRSKISPQGY-NH2 [SEQ ID NO: 157] | 100 % of positive control | 95 % of positive control |  |
| miniPEG-K(PAL)GCRFGTCT(D-Val)QKLAHQIYQFTDKDVAPRSKISPQGY-NH2 [SEQ ID NO: 211] | 91 % of positive control | 22 % of positive control | receptor selectivity of agonists, in words (CLR/RAMP2 receptor [2]): CLR/RAMP2-selective |
| miniPEG-K(PAL)GCRFGTCTVQKLAHQIYQFTDKDKDNVAPRSKSSPHSY-NH2 [SEQ ID NO: 61] | 70 % of positive control | 92 % of positive control |  |
| Ace-RPKPQQFFGLM-miniPEG-K(PAL)GCRFGTCTVQKLAHQIYQFTDKDSAPVDPSSPHSY-NH2 [SEQ ID NO: 147] | 109 % of positive control | 90 % of positive control |  |
